Laboratory results reported in patent US8748461B2, “Metalloenzyme inhibitor compounds” (Viamet Pharmaceuticals, Inc., priority 2011, dated 2014).
Values after ≈ are worked out from the molar mass of the structure shown.

Legend:
[1] = test system: Septoria tritici (ATCC 26517); test: Minimum Inhibitory Concentration (MIC) vs. Septoria tritici; format: cell-based; settings: Zymoseptoria tritici, ATCC26517, 168 h; 50% reduction in growth of S. tritici; 22° C., seven days; read-out: Septoria Rating (MIC)
Procedure: C. Minimum Inhibitory Concentration (MIC) vs. Septoria tritici Compounds were assessed for their ability to inhibit the growth of a common strain of the fungal plant pathogen Septoria tritici (ATCC 26517) using a procedure based on a Clinical and Laboratory Standards Institute (CLSI) microdilution assay protocol for filamentous fungi. Stock solutions of the test compounds and standards were prepared in DMSO at 6400 μg/mL. Each stock solution was used to prepare a 2-fold dilution series ranging from 16 to 0.016 μg/mL (total of 11 compound concentrations) in RPMI-1640 (Roswell Park Memorial Institute) medium containing 3-(N-morpholino)propanesulfonic acid (MOPS) buffer and 2% DMSO. A 100 μL aliquot of the dilutions was added to columns 1 (16 μg/mL compound) through 11 (0.016 μg/mL compound) of a 96-well microtiter plate. This format was replicated in a second row of the microtiter plate. Thus, each microtiter plate could include 11 concentrations of four test or control compounds replicated twice. A 100 μL aliquot of RPMI-1640/MOPS/2% DMSO medium was added to column 12 (no compound control) of the microtiter plate. A fresh culture of S. tritici was used to prepare a solution of approximately 5×10^4 colony-forming units per milliliter (cfu/mL) in RPMI/MOPS medium without DMSO. A 100 μL aliquot of this solution was added to all 96 wells in the microtiter plate. […] The assay plates were incubated at 22° C. for seven days in the dark without shaking. […] In each case of Table 3, the Septoria rating scale is as follows: […]

[2] = test system: Puccinia recondita tritici = Puccinia triticina; test: Fungicidal activity vs. leaf rust on wheat plants; format: in vivo; settings: 50 ppm spray on wheat (Yuma), inoculated the following day, evaluated 7-9 days later; read-out: Puccinia Rating (% Disease Control @ 50 ppm)
Source text: D. Evaluation of Fungicidal Activity Vs. Leaf Rust (Causal Agent Puccinia recondita Tritici=Puccinia triticina; Bayer code PUCCRT). […] Each pot contained 3-8 seedlings. These plants were sprayed until wet with the formulated test compounds. The compounds were formulated at 50 ppm in 10 vol. % acetone plus 90 vol. % Triton X water (deionized water 99.99 wt %+0.01 wt % Triton X100), giving a “formulated test compound.” Formulated test compounds were applied to plants using a turn table sprayer fitted with two opposing air atomization nozzles which delivered approximately 1500 L/ha of spray volume. On the following day, the leaves were inoculated with an aqueous spore suspension of Puccinia recondita tritici and the plants were kept in high humidity overnight to permit spores to germinate and infect the leaf. The plants were then transferred to a greenhouse until disease developed on untreated control plants. Disease severity was evaluated 7-9 days later, depending on the speed of disease development. In each case of Table 3, the Puccinia rating scale is as follows: […]

| SMILES | MIC [1] [µg/mL] | pest or weed control at 50 ppm [2] [%] |
| --- | --- | --- |
| OC(Cn1cnnn1)(c1ccc(F)cc1F)C(F)(F)c1ccc(Oc2ccc(/C=N/OCc3ccccc3)cn2)cn1 (stereo not drawn) [Compound 103, (E)-6-((6-(2-(2,4-difluorophenyl)-1,1-difluoro-2-hydroxy-3-(1H-tetrazol-1-yl)propyl)pyridin-3-yl)oxy)nicotinaldehyde O-benzyl oxime] | 0.5 to 1.5 (≈ 0.863 to 2.59 µM) | 60 to 79 |
| N#Cc1ccc(COc2ccc(C(F)(F)C(O)(Cn3cnnn3)c3ccc(F)cc3F)nc2)cc1F (stereo not drawn) [Compound 10, 4-(((6-(2-(2,4-Difluorophenyl)-1,1-difluoro-2-hydroxy-3-(1H-tetrazol-1-yl)propyl)pyridin-3-yl)oxy)methyl)-2-fluorobenzonitrile] | ≤ 0.5 | 80 to 100 |
| N#Cc1ncc(Oc2ccc(C(F)(F)C(O)(Cn3cnnn3)c3ccc(F)cc3F)nc2)cn1 (stereo not drawn) [Compound 100, 5-((6-(2-(2,4-difluorophenyl)-1,1-difluoro-2-hydroxy-3-(1H-tetrazol-1-yl)propyl)pyridin-3-yl)oxy)pyrimidine-2-carbonitrile] | 0.5 to 1.5 (≈ 1.06 to 3.18 µM) | 60 to 79 |
| COc1cccc(Oc2ccc(C(F)(F)C(O)(Cn3cnnn3)c3ccc(F)cc3F)nc2)c1 (stereo not drawn) [Compound 85, 2-(2,4-Difluorophenyl)-1,1-difluoro-1-(5-(3-methoxyphenoxy)pyridin-2-yl)-3-(1H-tetrazol-1-yl)propan-2-ol] | ≤ 0.5 | 80 to 100 |
| OC(Cn1cnnn1)(c1ccc(F)cc1F)C(F)(F)c1ccc(OCc2cc(F)cc(F)c2)cn1 (stereo not drawn) [Compound 35, 1-(5-((3,5-Difluorobenzyl)oxy)pyridin-2-yl)-2-(2,4-difluorophenyl)-1,1-difluoro-3-(1H-tetrazol-1-yl)propan-2-ol] | ≤ 0.5 | 80 to 100 |
| OC(Cn1cnnn1)(c1ccc(F)cc1F)C(F)(F)c1ccc(Oc2ccccc2F)cn1 (stereo not drawn) [Compound 88, 2-(2,4-Difluorophenyl)-1,1-difluoro-1-(5-(2-fluorophenoxy)pyridin-2-yl)-3-(1H-tetrazol-1-yl)propan-2-ol] | ≤ 0.5 | 80 to 100 |
| OC(Cn1cnnn1)(c1ccc(F)cc1F)C(F)(F)c1ccc(OCc2cccc(F)c2F)cn1 (stereo not drawn) [Compound 23, 1-(5-((2,3-Difluorobenzyl)oxy)pyridin-2-yl)-2-(2,4-difluorophenyl)-1,1-difluoro-3-(1H-tetrazol-1-yl)propan-2-ol] | ≤ 0.5 | 80 to 100 |
| OC(Cn1cnnn1)(c1ccc(F)cc1F)C(F)(F)c1ccc(OCC2CC2)cn1 (stereo not drawn) [Compound 39, 1-(5-(Cyclopropylmethoxy)pyridin-2-yl)-2-(2,4-difluorophenyl)-1,1-difluoro-3-(1H-tetrazol-1-yl)propan-2-ol] | ≤ 0.5 | 80 to 100 |
| N#Cc1ccc(COc2ccc(C(F)(F)C(O)(Cn3ncnn3)c3ccc(F)cc3F)nc2)cc1 (stereo not drawn) [Compound 83, 4-(((6-(2-(2,4-Difluorophenyl)-1,1-difluoro-2-hydroxy-3-(2H-tetrazol-2-yl)propyl)pyridin-3-yl)oxy)methyl)benzonitrile] | 1.5 to 4 (≈ 3.1 to 8.26 µM) | 40 to 59 |
| OC(Cn1cnnn1)(c1ccc(F)cc1F)C(F)(F)c1ccc(OCc2ccc(F)c(F)c2)cn1 (stereo not drawn) [Compound 28, 1-(5-((3,4-Difluorobenzyl)oxy)pyridin-2-yl)-2-(2,4-difluorophenyl)-1,1-difluoro-3-(1H-tetrazol-1-yl)propan-2-ol] | ≤ 0.5 | 80 to 100 |
| N#Cc1ccc(F)c(COc2ccc(C(F)(F)C(O)(Cn3cnnn3)c3ccc(F)cc3F)nc2)c1 (stereo not drawn) [Compound 59, 3-(((6-(2-(2,4-Difluorophenyl)-1,1-difluoro-2-hydroxy-3-(1H-tetrazol-1-yl)propyl)pyridin-3-yl)oxy)methyl)-4-fluorobenzonitrile] | ≤ 0.5 | 80 to 100 |
| OC(Cn1cnnn1)(c1ccc(F)cc1F)C(F)(F)c1ccc(OCC(F)(F)F)cn1 (stereo not drawn) [Compound 12, 2-(2,4-Difluorophenyl)-1,1-difluoro-3-(1H-tetrazol-1-yl)-1-(5-(2,2,2-trifluoroethoxy)pyridin-2-yl)propan-2-ol] | ≤ 0.5 | 80 to 100 |
| OC(Cn1cnnn1)(c1ccc(F)cc1F)C(F)(F)c1ccc(Oc2ncc(C(F)(F)F)cn2)cn1 (stereo not drawn) [Compound 105, 2-(2,4-difluorophenyl)-1,1-difluoro-3-(1H-tetrazol-1-yl)-1-(5-((5-(trifluoromethyl)pyrimidin-2-yl)oxy)pyridin-2-yl)propan-2-ol] | ≤ 0.5 | 80 to 100 |
| N#Cc1ccc(COc2ccc(C(F)(F)C(O)(Cn3cnnn3)c3ccc(F)cc3F)nc2)c(F)c1 (stereo not drawn) [Compound 57, 4-(((6-(2-(2,4-Difluorophenyl)-1,1-difluoro-2-hydroxy-3-(1H-tetrazol-1-yl)propyl)pyridin-3-yl)oxy)methyl)-3-fluorobenzonitrile] | ≤ 0.5 | 80 to 100 |
| COc1ccc(C(F)(F)C(O)(Cn2cnnn2)c2ccc(F)cc2F)nc1 (stereo not drawn) [Compound 8, 2-(2,4-Difluorophenyl)-1,1-difluoro-1-(5-methoxypyridin-2-yl)-3-(1H-tetrazol-1-yl)propan-2-ol] | 0.5 to 1.5 (≈ 1.3 to 3.91 µM) | 80 to 100 |
| OC(Cn1cnnn1)(c1ccc(F)cc1F)C(F)(F)c1ccc(OCc2ccc(C(F)(F)F)cc2F)cn1 (stereo not drawn) [Compound 24, 2-(2,4-Difluorophenyl)-1,1-difluoro-1-(5-((2-fluoro-4-(trifluoromethyl)benzyl)oxy)pyridin-2-yl)-3-(1H-tetrazol-1-yl)propan-2-ol] | ≤ 0.5 | 80 to 100 |
| N#Cc1cccc(Oc2ccc(C(F)(F)C(O)(Cn3cnnn3)c3ccc(F)cc3F)nc2)c1 (stereo not drawn) [Compound 78, 3-((6-(2-(2,4-Difluorophenyl)-1,1-difluoro-2-hydroxy-3-(1H-tetrazol-1-yl)propyl)pyridin-3-yl)oxy)benzonitrile] | ≤ 0.5 | 80 to 100 |
| OC(Cn1cnnn1)(c1ccc(F)cc1F)C(F)(F)c1ccc(Oc2ccc(C(F)(F)F)cc2)cn1 (stereo not drawn) [Compound 75, 2-(2,4-Difluorophenyl)-1,1-difluoro-3-(1H-tetrazol-1-yl)-1-(5-(4-(trifluoromethyl)phenoxy)pyridin-2-yl)propan-2-ol] | ≤ 0.5 | 80 to 100 |
| N#Cc1ccc(COc2ccc(C(F)(F)C(O)(Cn3cnnn3)c3ccc(Cl)cc3F)nc2)cc1 (stereo not drawn) [Compound 55, 4-(((6-(2-(4-Chloro-2-fluorophenyl)-1,1-difluoro-2-hydroxy-3-(1H-tetrazol-1-yl)propyl)pyridin-3-yl)oxy)methyl)benzonitrile] | ≤ 0.5 | 80 to 100 |
| COc1ccc(COc2ccc(C(F)(F)C(O)(Cn3cnnn3)c3ccc(F)cc3F)nc2)cc1 (stereo not drawn) [Compound 41, 2-(2,4-Difluorophenyl)-1,1-difluoro-1-(5-((4-methoxybenzyl)oxy)pyridin-2-yl)-3-(1H-tetrazol-1-yl)propan-2-ol] | ≤ 0.5 | 80 to 100 |
| CO/N=C/c1ccc(Oc2ccc(C(F)(F)C(O)(Cn3cnnn3)c3ccc(F)cc3F)nc2)nc1 (stereo not drawn) [Compound 102, (E)-6-((6-(2-(2,4-difluorophenyl)-1,1-difluoro-2-hydroxy-3-(1H-tetrazol-1-yl)propyl)pyridin-3-yl)oxy)nicotinaldehyde O-methyl oxime] | ≤ 0.5 | 80 to 100 |
